Earlier results in patent publication EP1362518A1, “Food product providing sustained blood levels of exogenous substances” (NESTEC S.A., priority 2002, dated 2003).

Columns and labels:
[1] = not given; remark: listed apart in the source
dogs = conditions: 100mg/kg/d (caffeine/body weight/day) consumed for more than 3 days

SMILES: Cn1c(=O)c2c(ncn2C)n(C)c1=O [caffeine]
- half-life of caffeine (adults): 3 to 7 h
- time of peak in caffeine level in blood (after consumption of a cup of coffee): about an hour
- threshold value for stimulation ([1]; in vivo): about 2 mg/l blood plasma
- threshold value of stimulation ([1]; in vivo): about 2 mg/l plasma
- upper end of the desired range ([1]; side effects above this range): about 20 mg/l blood plasma
- death (dogs): death can occur
